In PubChem BioAssay AID1963966 (Molecular Pharmacology Branch, DTP, NCI, 2024):

System: 935938-334-R-J1-PDC spheroids with HUVEC/MSC, viability
Experiment: Anticancer human tumor 935938-334-R-J1-PDC patient-derived small intestine adenocarcinoma cell line growth inhibition [PI3K]
Details: for IC50: curve of first compound; for viability, T/C: stronger effect = lower value
Summary of the method: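 Combination activity was assessed by viability in multicellular tumor spheroids carrying HUVEC and MSC components. Agents were tested with PI3K inhibitors from a Cmax-based top dose (or 10 microM) downward in half-log increments.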
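Further: compound exposure lasted seven days before viability was read.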
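Wherever viability, T/C is given: percent of vehicle DMSO treated spheroid viability so 100% = untreated.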

Work on `Cn1cnc2c(F)c(Nc3ccc(Br)cc3Cl)c(C(=O)NOCCO)cc21` + CC(Nc1ncnc2nc[nH]c12)c1cc2cccc(Cl)c2c(=O)n1-c1ccccc1 yielded an IC50 (second compound 0.0316 µM) of 68.7 nM, an IC50 (second compound 0.1 µM) of 110 nM and an IC50 (second compound 0.316 µM) of 78.4 nM. It also gave an IC50 (second compound 1 µM) of 81.4 nM, an IC50 (second compound 3.16 µM) of 30.5 nM and an IC50 (second compound 10 µM) of 51.5 nM. It also gave a viability, T/C (second compound 0.0316 µM, first compound 0.00949 µM) of 82.2%, a viability, T/C (second compound 0.0316 µM, first compound 0.03 µM) of 63.5% and a viability, T/C (second compound 0.0316 µM, first compound 0.0949 µM) of 43.2%. The viability, T/C (second compound 0.0316 µM, first compound 0.3 µM) was 34.5%, the viability, T/C (second compound 0.0316 µM, first compound 0.949 µM) was 27.5% and the viability, T/C (second compound 0.0316 µM, first compound 3 µM) was 21.8%. It also gave a viability, T/C (second compound 0.1 µM, first compound 0.00949 µM) of 76%, a viability, T/C (second compound 0.1 µM, first compound 0.03 µM) of 71.7% and a viability, T/C (second compound 0.1 µM, first compound 0.0949 µM) of 47.4%. The viability, T/C (second compound 0.1 µM, first compound 0.3 µM) was 38.2%, the viability, T/C (second compound 0.1 µM, first compound 0.949 µM) was 30.9% and the viability, T/C (second compound 0.1 µM, first compound 3 µM) was 20.8%. For the same molecule, the viability, T/C (second compound 0.316 µM, first compound 0.00949 µM) was 73.5%, the viability, T/C (second compound 0.316 µM, first compound 0.03 µM) was 70.4% and the viability, T/C (second compound 0.316 µM, first compound 0.0949 µM) was 41.4%. The viability, T/C (second compound 0.316 µM, first compound 0.3 µM) was 35.4%, the viability, T/C (second compound 0.316 µM, first compound 0.949 µM) was 22.3% and the viability, T/C (second compound 0.316 µM, first compound 3 µM) was 20%. The viability, T/C (second compound 1 µM, first compound 0.00949 µM) was 73.9%, the viability, T/C (second compound 1 µM, first compound 0.03 µM) was 65.6% and the viability, T/C (second compound 1 µM, first compound 0.0949 µM) was 47.7%. For the same molecule, the viability, T/C (second compound 1 µM, first compound 0.3 µM) was 30.9%, the viability, T/C (second compound 1 µM, first compound 0.949 µM) was 26.2% and the viability, T/C (second compound 1 µM, first compound 3 µM) was 22.6%. For the same molecule, the viability, T/C (second compound 3.16 µM, first compound 0.00949 µM) was 51%, the viability, T/C (second compound 3.16 µM, first compound 0.03 µM) was 56.6% and the viability, T/C (second compound 3.16 µM, first compound 0.0949 µM) was 38.6%. It also gave a viability, T/C (second compound 3.16 µM, first compound 0.3 µM) of 30.6%, a viability, T/C (second compound 3.16 µM, first compound 0.949 µM) of 27.4% and a viability, T/C (second compound 3.16 µM, first compound 3 µM) of 16%. The viability, T/C (second compound 10 µM, first compound 0.00949 µM) was 65.2%, the viability, T/C (second compound 10 µM, first compound 0.03 µM) was 59.6% and the viability, T/C (second compound 10 µM, first compound 0.0949 µM) was 39.4%. It also gave a viability, T/C (second compound 10 µM, first compound 0.3 µM) of 25.6%, a viability, T/C (second compound 10 µM, first compound 0.949 µM) of 22.6% and a viability, T/C (second compound 10 µM, first compound 3 µM) of 17.6%.

In the case of `CC1(C)CCC(Nc2ncc(C(F)(F)F)c(-c3c[nH]c4c(P(C)(C)=O)c(C#N)ccc34)n2)CN1` (centres undefined) + COc1c(OCCCN2CCOCC2)ccc2c3n(c(=NC(=O)c4cnc(N)nc4)nc12)CCN3, the IC50 (second compound 0.00316 µM) is reported as < 31.6 nM, the IC50 (second compound 0.01 µM) is reported as < 31.6 nM and the IC50 (second compound 0.0316 µM) is reported as < 31.6 nM. For the same molecule, the IC50 (second compound 0.1 µM) was < 31.6 nM, the IC50 (second compound 0.316 µM) was < 31.6 nM and the IC50 (second compound 1 µM) was < 31.6 nM. It also gave a viability, T/C (second compound 0.00316 µM, first compound 0.0316 µM) of 47.8%, a viability, T/C (second compound 0.00316 µM, first compound 0.1 µM) of 35.4% and a viability, T/C (second compound 0.00316 µM, first compound 0.316 µM) of 35%. It also gave a viability, T/C (second compound 0.00316 µM, first compound 1 µM) of 33%, a viability, T/C (second compound 0.00316 µM, first compound 3.16 µM) of 37.3% and a viability, T/C (second compound 0.00316 µM, first compound 10 µM) of 8.87%. It also gave a viability, T/C (second compound 0.01 µM, first compound 0.0316 µM) of 40.9%, a viability, T/C (second compound 0.01 µM, first compound 0.1 µM) of 34.9% and a viability, T/C (second compound 0.01 µM, first compound 0.316 µM) of 30.1%. For the same molecule, the viability, T/C (second compound 0.01 µM, first compound 1 µM) was 34.6%, the viability, T/C (second compound 0.01 µM, first compound 3.16 µM) was 29.6% and the viability, T/C (second compound 0.01 µM, first compound 10 µM) was 8.72%. The viability, T/C (second compound 0.0316 µM, first compound 0.0316 µM) was 30.4%, the viability, T/C (second compound 0.0316 µM, first compound 0.1 µM) was 35.4% and the viability, T/C (second compound 0.0316 µM, first compound 0.316 µM) was 33.1%. It also gave a viability, T/C (second compound 0.0316 µM, first compound 1 µM) of 27.5%, a viability, T/C (second compound 0.0316 µM, first compound 3.16 µM) of 34.2% and a viability, T/C (second compound 0.0316 µM, first compound 10 µM) of 6.35%. The viability, T/C (second compound 0.1 µM, first compound 0.0316 µM) was 35%, the viability, T/C (second compound 0.1 µM, first compound 0.1 µM) was 22.9% and the viability, T/C (second compound 0.1 µM, first compound 0.316 µM) was 20.2%. It also gave a viability, T/C (second compound 0.1 µM, first compound 1 µM) of 23.8%, a viability, T/C (second compound 0.1 µM, first compound 3.16 µM) of 25.7% and a viability, T/C (second compound 0.1 µM, first compound 10 µM) of 6.52%. The viability, T/C (second compound 0.316 µM, first compound 0.0316 µM) was 25%, the viability, T/C (second compound 0.316 µM, first compound 0.1 µM) was 21% and the viability, T/C (second compound 0.316 µM, first compound 0.316 µM) was 22.8%. For the same molecule, the viability, T/C (second compound 0.316 µM, first compound 1 µM) was 22.1%, the viability, T/C (second compound 0.316 µM, first compound 3.16 µM) was 23.3% and the viability, T/C (second compound 0.316 µM, first compound 10 µM) was 4.96%. The viability, T/C (second compound 1 µM, first compound 0.0316 µM) was 18.2%, the viability, T/C (second compound 1 µM, first compound 0.1 µM) was 24.7% and the viability, T/C (second compound 1 µM, first compound 0.316 µM) was 15.8%. It also gave a viability, T/C (second compound 1 µM, first compound 1 µM) of 24.9%, a viability, T/C (second compound 1 µM, first compound 3.16 µM) of 19% and a viability, T/C (second compound 1 µM, first compound 10 µM) of 3.4%.
